These results are taken from US9879043B1, “Synthesis of non-natural cofactor analogs of S-adenosyl-L-methionine using methionine adenosyltransferase” (University of Kentucky Research Foundation, priority 2013, dated 2018).

Like-named read-outs stand apart in the source and are kept apart here.

For assay [1], the target named is T1, Sulfolobus solfataricus MAT (sMAT) (Saccharolobus solfataricus, UniProt Q980S9).
T1 sequence (Q980S9 1-404): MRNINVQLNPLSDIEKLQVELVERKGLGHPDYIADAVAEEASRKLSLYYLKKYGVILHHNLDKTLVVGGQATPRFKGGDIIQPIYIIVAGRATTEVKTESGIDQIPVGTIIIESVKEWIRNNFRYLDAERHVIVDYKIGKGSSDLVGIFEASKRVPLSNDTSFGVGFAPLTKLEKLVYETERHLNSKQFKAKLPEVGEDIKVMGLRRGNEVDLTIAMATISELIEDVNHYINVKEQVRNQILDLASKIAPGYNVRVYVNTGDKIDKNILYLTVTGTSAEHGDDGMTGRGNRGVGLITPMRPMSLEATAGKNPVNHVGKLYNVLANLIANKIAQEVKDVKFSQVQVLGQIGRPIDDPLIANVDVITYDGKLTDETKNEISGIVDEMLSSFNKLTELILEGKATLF
Type of assay: biochemical. The settings on record: 2 mM analog, 1 mM ATP, 5 μM sMAT, pH 8.0, 4 h at 65° C., average of two assays.

Assay [2] addresses T1, Sulfolobus solfataricus MAT (sMAT). The assay is described as follows: Kinetic measurements of sMAT reactions. The format is biochemical. As for the experimental part: Kinetic Measurements of sMAT Reactions: Pseudo first-order kinetics was assessed in triplicate under saturating ATP (2.5 mM) and variable L-methionine/L-ethionine (0.007, 0.013, 0.033, 0.066, 0.133, 0.333, 0.66, 1.33 mM) and saturating L-methionine/L-ethionine (2.5 mM) and variable ATP (0.013, 0.033, 0.066, 0.133, 0.333, 0.66, 1.33 mM) concentrations. Reactions were performed in buffer containing 25 mM Tris pH 8.0, 40 mM KCl and 5 mM MgCl2, and 0.5 μg purified sMAT was added and incubated at 37° C. or 65° C. in a final volume of 20 μL. Reaction products were analyzed using RP-HPLC method above and product quantification was carried out using standard curve generated by commercial SAM. The kinetic curves were fit to the Michaelis-Menton equation using Prism software.

Regarding `CCSCC[C@H](N)C(=O)O` [compound 3, (2S)-2-amino-4-(ethylsulfanyl)butanoic acid], the “Percentage Turn-Over (sMAT)” value is 84% in assay [1] and roughly 100% in assay [1] (listed as ethionine). Further, in assay [2] (37° C. or 65° C., L-methionine versus L-ethionine), the kcat result is recorded as “similar”. In addition, the Km entry in assay [2] (compared to native substrate L-methionine) is “higher Km values”.
